Results taken from patent US20230257366A1, “SULFUR-CONTAINING ISOINDOLINE DERIVATIVE, AND PREPARATION METHOD THEREFOR AND MEDICAL USE THEREOF” (JIANGSU HENGRUI PHARMACEUTICALS CO., LTD., priority 2020, published 2023).

Each compound was assayed on NCI-H929 cells (assay: NCI-H929 proliferation experiment (CellTiter-Glo, 5 days)). Conditions: Homo sapiens, 120 h, 5 days incubation, read-out: IC50 values for the inhibition of proliferation of NCI-H929 cells.
Format: cell-based
Procedure: The following method was used to determine the inhibitory activity of the compounds of the present disclosure on the proliferation of NCI-H929 cells. The experimental method was briefly described as follows.
NCI-H929 cells (ATCC, CRL-9068) were cultured in a complete medium (RPMI 1640 medium (Hyclone, SH30809.01) containing 10% fetal bovine serum (Corning, 35-076-CV) and 0.05 mM 2-mercaptoethanol (Sigma, M3148)). On the first day of the experiment, NCI-H929 cells were seeded in a 96-well plate at a density of 6000 cells/well with a complete medium to form 100 μL of cell suspension per well, and 10 μL of test compound prepared in a complete medium and diluted in a gradient was added to each well. The compound was firstly dissolved in DMSO, with an initial concentration of 10 mM, and then subjected to serial dilution at a 5-fold concentration gradient for a total of 9 concentration points, with a blank control of 100% DMSO. Another 5 μL of the compound dissolved in DMSO was added to 95 μL of complete medium, i.e., the compound was diluted 20-fold with the complete medium. Finally the compound diluted in the complete medium at 10 μL/well was added to the cell suspension, wherein the final concentrations of the compound were 9 concentration points obtained by 5-fold gradient dilution starting from 50 μM. A blank control containing 0.5% DMSO was set. The plate was incubated in a cell incubator at 37° C. with 5% CO2 for 5 days. On the sixth day, the 96-well cell culture plate was taken out, added with a CellTiter-Glo® luminescent cell activity detect reagent (Promega, G7573) at 50 μL/well, left to stand at room temperature for 10 min, and read for the luminescence signal values using a multi-mode microplate reader (PerkinElmer, EnVision 2015). IC50 values for the inhibitory activity of the compounds were calculated using Graphpad Prism software, with the results shown in Table 1.

Row | IC50 [nM] | SMILES
1 | 0.75 | N#Cc1ccc(N2CCC(Sc3ccc(COc4cccc5c4CN([C@H]4CCC(=O)NC4=O)C5=O)cn3)C2)c(F)c1 (stereo partly drawn) [Compound 15, 4-(3-((5-(((2-((S)-2,6-dioxopiperidin-3-yl)-1-oxoisoindolin-4-yl)oxy)methyl)pyridin-2-yl)thio)pyrrolidin-1-yl)-3-fluorobenzonitrile]
2 | 0.27 | N#Cc1ccc(N2CCC(Sc3ccc(COc4cccc5c4CN([C@H]4CCC(=O)NC4=O)C5=O)cc3Cl)CC2)c(F)c1 [Compound 14, (S)-4-(4-((2-chloro-4-(((2-(2,6-dioxopiperidin-3-yl)-1-oxoisoindolin-4-yl)oxy)methyl)phenyl)thio)piperidin-1-yl)-3-fluorobenzonitrile]
3 | 0.34 | N#Cc1ccc(N2CCC(Sc3ccc(COc4cccc5c4CN(C4CCC(=O)NC4=O)C5=O)cc3)CC2)c(F)c1 (centres unmarked) [Compound 1, 4-(4-((4-(((2-(2,6-dioxopiperidin-3-yl)-1-oxoisoindolin-4-yl)oxy)methyl)phenyl)thio)piperidin-1-yl)-3-fluorobenzonitrile]
4 | 0.1 | N#Cc1ccc(N2CCC(Sc3ccc(COc4cccc5c4CN([C@H]4CCC(=O)NC4=O)C5=O)cc3)CC2)c(F)c1 [Compound 3, (S)-4-(4-((4-(((2-(2,6-dioxopiperidin-3-yl)-1-oxoisoindolin-4-yl)oxy)methyl)phenyl)thio)piperidin-1-yl)-3-fluorobenzonitrile]
5 | 1.78 | Cc1nc(SC2CCN(c3ccc(C#N)cc3F)CC2)ccc1COc1cccc2c1CN([C@H]1CCC(=O)NC1=O)C2=O [Compound 13, (S)-4-(4-((5-(((2-(2,6-dioxopiperidin-3-yl)-1-oxoisoindolin-4-yl)oxy)methyl)-6-methylpyridin-2-yl)thio)piperidin-1-yl)-3-fluorobenzonitrile]
6 | 0.21 | N#Cc1ccc(N2CCC(Sc3ccc(COc4cccc5c4CN([C@H]4CCC(=O)NC4=O)C5=O)c(F)n3)CC2)c(F)c1 [Compound 17, (S)-4-(4-((5-(((2-(2,6-dioxopiperidin-3-yl)-1-oxoisoindolin-4-yl)oxy)methyl)-6-fluoropyridin-2-yl)thio)piperidin-1-yl)-3-fluorobenzonitrile]
7 | 0.9 | N#Cc1ccc(N2CCC(Sc3ccc(COc4cccc5c4CN([C@H]4CCC(=O)NC4=O)C5=O)nc3)CC2)c(F)c1 [Compound 9, (S)-4-(4-((6-(((2-(2,6-dioxopiperidin-3-yl)-1-oxoisoindolin-4-yl)oxy)methyl)pyridin-3-yl)thio)piperidin-1-yl)-3-fluorobenzonitrile]
8 | 0.61 | N#Cc1ccc(N2CCC(Sc3c(F)cc(COc4cccc5c4CN([C@H]4CCC(=O)NC4=O)C5=O)cc3F)CC2)c(F)c1 [Compound 12, (S)-4-(4-((4-(((2-(2,6-dioxopiperidin-3-yl)-1-oxoisoindolin-4-yl)oxy)methyl)-2,6-difluorophenyl)thio)piperidin-1-yl)-3-fluorobenzonitrile]
9 | 0.17 | N#Cc1ccc(N2CCC(Sc3ccc(COc4cccc5c4CN([C@H]4CCC(=O)NC4=O)C5=O)cc3F)CC2)c(F)c1 [Compound 4, (S)-4-(4-((4-(((2-(2,6-dioxopiperidin-3-yl)-1-oxoisoindolin-4-yl)oxy)methyl)-2-fluorophenyl)thio)piperidin-1-yl)-3-fluorobenzonitrile]
10 | 0.28 | N#Cc1ccc(N2CCC(Sc3ccc(COc4cc(F)cc5c4CN([C@H]4CCC(=O)NC4=O)C5=O)cn3)CC2)c(F)c1 [Compound 8, (S)-4-(4-((5-(((2-(2,6-dioxopiperidin-3-yl)-6-fluoro-1-oxoisoindolin-4-yl)oxy)methyl)pyridin-2-yl)thio)piperidin-1-yl)-3-fluorobenzonitrile]
11 | 0.13 | N#Cc1ccc(N2CCC(Sc3ncc(COc4cccc5c4CN([C@H]4CCC(=O)NC4=O)C5=O)cn3)CC2)c(F)c1 [Compound 7, (S)-4-(4-((5-(((2-(2,6-dioxopiperidin-3-yl)-1-oxoisoindolin-4-yl)oxy)methyl)pyrimidin-2-yl)thio)piperidin-1-yl)-3-fluorobenzonitrile]
12 | 1.13 | N#Cc1ccc(N2CC(Sc3ccc(COc4cccc5c4CN([C@H]4CCC(=O)NC4=O)C5=O)cc3)C2)c(F)c1 [Compound 16, (S)-4-(3-((4-(((2-(2,6-dioxopiperidin-3-yl)-1-oxoisoindolin-4-yl)oxy)methyl)phenyl)thio)azetidin-1-yl)-3-fluorobenzonitrile]
13 | 0.08 | N#Cc1ccc(N2CCC(Sc3ccc(COc4cccc5c4CN([C@H]4CCC(=O)NC4=O)C5=O)c(F)c3)CC2)c(F)c1 [Compound 5, (S)-4-(4-((4-(((2-(2,6-dioxopiperidin-3-yl)-1-oxoisoindolin-4-yl)oxy)methyl)-3-fluorophenyl)thio)piperidin-1-yl)-3-fluorobenzonitrile]
14 | 0.22 | N#Cc1ccc(N2CCC(Sc3cc(F)c(COc4cccc5c4CN([C@H]4CCC(=O)NC4=O)C5=O)cc3F)CC2)c(F)c1 [Compound 11, (S)-4-(4-((4-(((2-(2,6-dioxopiperidin-3-yl)-1-oxoisoindolin-4-yl)oxy)methyl)-2,5-difluorophenyl)thio)piperidin-1-yl)-3-fluorobenzonitrile]
15 | 0.34 | N#Cc1ccc(N2CCC(Sc3cc(F)c(COc4cccc5c4CN([C@H]4CCC(=O)NC4=O)C5=O)c(F)c3)CC2)c(F)c1 [Compound 18, (S)-4-(4-((4-(((2-(2,6-dioxopiperidin-3-yl)-1-oxoisoindolin-4-yl)oxy)methyl)-3,5-difluorophenyl)thio)piperidin-1-yl)-3-fluorobenzonitrile]
16 | 0.18 | N#Cc1ccc(N2CCC(Sc3ccc(COc4cccc5c4CN([C@H]4CCC(=O)NC4=O)C5=O)c(F)c3F)CC2)c(F)c1 [Compound 10, (S)-4-(4-((4-(((2-(2,6-dioxopiperidin-3-yl)-1-oxoisoindolin-4-yl)oxy)methyl)-2,3-difluorophenyl)thio)piperidin-1-yl)-3-fluorobenzonitrile]
17 | 4.36 | N#Cc1ccc(N2CCC(Sc3ccc(COc4cccc5c4C(=O)N(C4CCC(=O)NC4=O)C5=O)cc3)CC2)c(F)c1 (centres unmarked) [Compound 2, 4-(4-((4-(((2-(2,6-dioxopiperidin-3-yl)-1,3-dioxoisoindolin-4-yl)oxy)methyl)phenyl)thio)piperidin-1-yl)-3-fluorobenzonitrile]
